Assay results: article PMC9800617, “Pharmacokinetics/pharmacodynamics of polymyxin B in patients with bloodstream infection caused by carbapenem-resistant Klebsiella pneumoniae” (Frontiers in Pharmacology, 2022)
Values after ≈ are worked out from the molar mass of the structure shown. Where two headings read alike, the source gives them in different places.

Legend:
P. aeruginosa = details: cited from earlier work
Description: (§1) Monte Carlo simulations were conducted for the probability of target attainment (PTA) analysis to guide the selection of optimal dosage regimens. Different dosage regimens were simulated by the PPK model and AUCss,24h were calculated. […] The maximal reductions in colony f ... || FIGURE 4 Probability of target attainment for different dosage regimens of polymyxin B against common carbapenem-resistant organisms according to PK/PD simulations. (A) Loading dose for three bacterial species. […] In preclinical studies, the fAUC/MIC required for various magnitudes of bacterial killing varied among bacterial strains and infection sites. […] Against P. aeruginosa and A. b ... || (+ 2 further places)

A. baumannii = details: cited from earlier work
Description: as §1

[1] = system: carbapenem-resistant K. pneumoniae; details: retrospective, 2021, cited from earlier work
From the text: In the present study, microbiological eradication was achieved by the third day of treatment in all eight patients assessed and blood culture remained negative until they had completed the study or withdrew. Clinical improvement occurred in 6 of 8 (75%) of th ...

[2] = system: carbapenem-resistant K. pneumoniae (CRKP) strains; assay: Broth microdilution MIC (EUCAST); assay type: cell-based; details: Klebsiella pneumoniae
Description: The minimum inhibitory concentrations (MICs) to polymyxin B and meropenem of the collected CRKP strains were determined by broth microdilution according to the European Committee on Antimicrobial Susceptibility Testing (EUCAST) guidelines and interpreted according to EUCAST breakpoints of colistin (Breakpoint tables for interpretation of MICs and zone diameters, Version 11.0); Escherichia coli ATCC 25922 was used as the control strain. Polymerase chain reaction (PCR) was employed to determine the presence of resistance genes (KPC, NDM, IMP, OXA, VIM). The primers were the same as in a published protocol and the sample process procedures were adapted a little bit ([Poirel et al., 2011]). To be brief, a single colony of the bacteria were picked and resuspended in ultra-pure water, and total DNA was extracted by heating bacterial suspension at 100°C for 10 min to lysis and release DNA. The suspension was centrifuged for total DNA which was dissolved in supernatant. Then 2 µl total DNA, 1 µl forward and 1 µl reverse primers (10 µM) for each targeted gene, 12.5 µl 2 × Hieff® Robust PCR Master Mix (Yeasen, Shanghai, China) and ultra-pure water were mixed into a 25 µl reaction mixture. […] Finally amplified DNA fragments were analyzed by electrophoresis in a 1% agarose gel. […]

Compound: colistin
- fAUC24h/MIC target (P. aeruginosa; 2-log10 reduction against P. aeruginosa, murine thigh infection, ref Cheah et al., 2015): 13.5
- fAUC/MIC target (P. aeruginosa; 2 log10 kill, mouse thigh infection, P. aeruginosa, ref Dudhani et al., 2010a, 2010b): ~17
- fAUC24h/MIC target (A. baumannii; 2-log10 reduction against A. baumannii, murine thigh infection, ref Cheah et al., 2015): 17.6
- fAUC/MIC target (A. baumannii; 2 log10 kill, mouse thigh infection, A. baumannii, ref Dudhani et al., 2010a, 2010b): ~17

Compound: ceftazidime-avibactam
- 30-day mortality ([1]; CRKP BSI, alone or combined with other antibiotics, ref Tumbarello et al.): around 25%

Compound: C[C@@H](O)[C@H]1C(=O)N2C(C(=O)O)=C(S[C@@H]3CN[C@H](C(=O)N(C)C)C3)[C@H](C)[C@H]12 [meropenem]
- MIC ([2]; 9 strains (all except strain No. 2–2), read-out: meropenem MIC): > 64 µg/mL
- MIC ([2]; strain No. 2–2, read-out: meropenem MIC): 4 µg/mL (≈ 10.4 µM)

Compound: NCC[C@H](O)C(=O)N[C@@H]1C[C@H](N)[C@@H](O[C@H]2O[C@H](CN)[C@@H](O)[C@H](O)[C@H]2O)[C@H](O)[C@H]1O[C@H]1O[C@H](CO)[C@@H](O)[C@H](N)[C@H]1O [amikacin]
- 30-day mortality ([1]; amikacin and its combinations for CRKP infection, ref Rodrigues et al.): 34.5%
